From PubChem BioAssay (NCI)
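Growth conditions: 96-well plates. Treatment: test compound, 48 hours, 5 concentrations. Analysis: linear interpolation between bracketing concentrations; unreached endpoints set to highest concentration. GI50 = concentration required for 50% inhibition of growth. TGI marks complete inhibition of growth.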

Experiments:
Assay in all cases: DTP human tumour cell line panel, 48 h
IGROV1 ovarian = tested on: IGROV1 ovarian
KM20L2 colon = tested on: KM20L2 colon
M19-MEL melanoma = tested on: M19-MEL melanoma
SW-620 colon = tested on: SW-620 colon
SF-268 CNS = tested on: SF-268 CNS
SNB-19 CNS = tested on: SNB-19 CNS
SR leukemia = tested on: SR leukemia
CAKI-1 renal = tested on: CAKI-1 renal
HOP-92 NSCLC = tested on: HOP-92 NSCLC
MDA-MB-231 breast = tested on: MDA-MB-231 breast

Structure (SMILES) | TGI (IGROV1 ovarian) | TGI (KM20L2 colon) | TGI (M19-MEL melanoma) | TGI (SW-620 colon) | TGI (SF-268 CNS) | TGI (SNB-19 CNS) | TGI (SR leukemia) | TGI (CAKI-1 renal) | TGI (HOP-92 NSCLC) | GI50 (IGROV1 ovarian) | GI50 (HOP-92 NSCLC) | GI50 (CAKI-1 renal) | GI50 (M19-MEL melanoma) | GI50 (SW-620 colon) | GI50 (SF-268 CNS) | GI50 (SNB-19 CNS) | GI50 (SR leukemia) | GI50 (MDA-MB-231 breast) | TGI (MDA-MB-231 breast)
COc1nc2c(c(O)c(C)c(=O)n2OC2OCC(OC(C)=O)C(OC(C)=O)C2OC(C)=O)c(=O)n1C (configuration not stated) | > 100 µM | > 100 µM | > 100 µM | > 100 µM | > 100 µM | > 100 µM | > 100 µM | – | – | – | – | – | – | – | – | – | – | – | –
O=c1cc(O)cc2n1CCC2 | > 100 µM | > 100 µM | – | > 100 µM | > 100 µM | > 100 µM | – | > 100 µM | – | – | – | – | – | – | – | – | – | – | –
O=C(NC1C(=O)NNC1c1cccc([N+](=O)[O-])c1)c1ccccc1 (configuration not stated) | > 100 µM | > 100 µM | > 100 µM | > 100 µM | > 100 µM | > 100 µM | – | – | > 100 µM | – | – | – | – | – | – | – | – | – | –
Cc1ccc2c(c1)CN1c3ccc(C)cc3CN2C1c1ccccc1O | > 100 µM | – | > 100 µM | > 100 µM | > 100 µM | – | > 100 µM | > 100 µM | > 100 µM | – | – | – | – | – | – | – | – | – | –
C[C@]12Cc3cn[nH]c3C(=O)C1CC[C@@H]1C2CC[C@@]2(C)C1CC[C@@H]2O (some centres not stated) | > 100 µM | > 100 µM | – | > 100 µM | > 100 µM | > 100 µM | – | > 100 µM | > 100 µM | – | – | – | – | – | – | – | – | – | –
N#CC(C(=O)C(=O)Nc1c(Cl)cccc1Cl)c1ccccc1 (configuration not stated) | > 100 µM | – | > 100 µM | > 100 µM | > 100 µM | > 100 µM | – | > 100 µM | > 100 µM | > 100 µM | > 100 µM | > 100 µM | > 100 µM | > 100 µM | > 100 µM | > 100 µM | – | – | –
O=C(NC12CC3CCC1CC(C3)C2)[C@@H]1CCCN1C(=O)OCc1ccccc1 (some centres not stated) | > 100 µM | > 100 µM | > 100 µM | > 100 µM | > 100 µM | > 100 µM | > 100 µM | – | 71.5 µM | – | – | – | – | – | – | – | – | – | –
N#C/C(=C\c1cc(OCc2ccccc2)c(OCc2ccccc2)cn1)C(N)=O | > 100 µM | > 100 µM | > 100 µM | > 100 µM | > 100 µM | > 100 µM | – | > 100 µM | > 100 µM | – | – | – | – | – | – | – | – | – | –
O=C(/C=C/C12c3ccccc3C(c3ccccc31)C1C(=O)NC(=O)C12)c1ccccn1 (configuration not stated) | 6.53 µM | – | – | 5.03 µM | 4.35 µM | 3.22 µM | 7.31 µM | 4.38 µM | 4.54 µM | 1.36 µM | 1.98 µM | 1.66 µM | – | 1.69 µM | 1.61 µM | 1.53 µM | 0.782 µM | 1.49 µM | 4.44 µM
CCN(CC)Cc1cc(Nc2nc(NC3CCC(N(C)C)CC3)c3ccccc3n2)ccc1OC (configuration not stated) | 34.3 µM | – | – | 13.3 µM | 20.4 µM | 22.6 µM | 4.74 µM | > 100 µM | 6.71 µM | 12.8 µM | 1.63 µM | 30.9 µM | – | 3.18 µM | 5.35 µM | 8.6 µM | 2.13 µM | 1.7 µM | 6.09 µM
CC1(C)OC[C@@H]([C@@]2(CO[Si](c3ccccc3)(c3ccccc3)C(C)(C)C)CC=CC(=O)O2)O1 | 80.2 µM | – | – | 46.7 µM | 45.8 µM | 97.5 µM | 16.6 µM | > 100 µM | 26.2 µM | 5.42 µM | 6.72 µM | 25.9 µM | – | 4.55 µM | 10.5 µM | 15.5 µM | 4.1 µM | 20.6 µM | > 100 µM
